How the values were obtained:
[1] = system: MBP-SCRIB-4/4 PDZ construct; test: Automated holdup assay, benchmark set; assay type: binding, human; settings: overlaid electropherograms of peptide and biotin flowthroughs
[2] = system: MBP-SCRIB-34/4 PDZ tandem construct; test: Automated holdup assay, benchmark set; assay type: binding, human; settings: overlaid electropherograms of peptide and biotin flowthroughs

Row | Sequence | binding strength in holdup [1] | binding strength in holdup [2]
1 | GSGAGHETIV [TMFLJ_05] | no binding | –
2 | GSGAGKETLV [NET1_05] | – | moderate binding

Source: PMC4521981 (Nature methods, 2015)
